Assay results reported in PubChem BioAssay (NCI).
Values joined by “and” are separate entries in the source; they are usually repeats but may differ in a detail not shown here. Equal values may be shown once.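 Following 48 hours of exposure in 96-well plates, responses at five concentrations were used to interpolate endpoints linearly. Here, GI50 denotes the concentration required for 50% inhibition of growth. TGI: total growth inhibition.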

Assays:
Assay in all cases: NCI-60 cell line screen, 48 h
[1] = test system: 786-0 renal
[2] = test system: A498 renal
[3] = test system: A549 NSCLC
[4] = test system: ACHN renal
[5] = test system: BT-549 breast
[6] = test system: CAKI-1 renal
[7] = test system: CCRF-CEM leukemia
[8] = test system: COLO 205 colon
[9] = test system: DU-145 prostate
[10] = test system: EKVX NSCLC
[11] = test system: HCC-2998 colon
[12] = test system: HCT-116 colon
[13] = test system: HCT-15 colon
[14] = test system: HL-60(TB) leukemia
[15] = test system: HOP-62 NSCLC
[16] = test system: HOP-92 NSCLC
[17] = test system: HS 578T breast
[18] = test system: HT29 colon
[19] = test system: IGROV1 ovarian
[20] = test system: K-562 leukemia
[21] = test system: KM12 colon
[22] = test system: LOX IMVI melanoma
[23] = test system: M14 melanoma
[24] = test system: MALME-3M melanoma
[25] = test system: MCF7 breast
[26] = test system: MDA-MB-231 breast
[27] = test system: MDA-MB-435
[28] = test system: MOLT-4 leukemia
[29] = test system: NCI-H226 lung
[30] = test system: NCI-H23 lung
[31] = test system: NCI-H460 lung
[32] = test system: NCI-H522 lung
[33] = test system: NCI/ADR-RES ovarian
[34] = test system: OVCAR-3 ovarian
[35] = test system: OVCAR-4 ovarian
[36] = test system: OVCAR-5 ovarian
[37] = test system: OVCAR-8 ovarian
[38] = test system: PC-3 prostate
[39] = test system: RPMI-8226 leukemia
[40] = test system: RXF 393 renal
[41] = test system: SF-268 CNS
[42] = test system: SF-295 CNS
[43] = test system: SF-539 CNS
[44] = test system: SK-MEL-2 melanoma
[45] = test system: SK-MEL-28 melanoma
[46] = test system: SK-MEL-5 melanoma
[47] = test system: SK-OV-3 ovarian
[48] = test system: SN12C renal
[49] = test system: SNB-19 CNS
[50] = test system: SNB-75 CNS
[51] = test system: SR leukemia
[52] = test system: SW-620 colon
[53] = test system: T-47D breast
[54] = test system: TK-10 renal
[55] = test system: U251 CNS
[56] = test system: UACC-257 melanoma
[57] = test system: UACC-62 melanoma
[58] = test system: UO-31 renal

Cn1ncc(Cl)c1-c1cc(C(=O)N[C@H](CN)Cc2cccc(F)c2)sc1Cl
GI50 [1]: 57.8 nM and 89.9 nM | TGI [1]: 1850 nM and 4120 nM | GI50 [2]: 126 nM and 104 nM | TGI [2]: 705 nM and 779 nM | GI50 [3]: 946 nM and 2320 nM | TGI [3]: > 10 µM and 16 µM | GI50 [4]: 2570 nM and 2760 nM | TGI [4]: > 10 µM and 15.4 µM | GI50 [5]: 518 nM and 1330 nM | TGI [5]: 3.35 µM and 7.5 µM | GI50 [6]: 1450 nM and 3030 nM | TGI [6]: > 9.48 µM and 15.5 µM | GI50 [7]: 349 nM and 294 nM | TGI [7]: > 10 µM and 10.5 µM | GI50 [8]: 546 nM and 1250 nM | TGI [8]: 1.84 µM and 5.21 µM | GI50 [9]: 2.28 µM and 5.86 µM | TGI [9]: > 10 µM and 19.4 µM | GI50 [10]: 3.24 µM | TGI [10]: > 10 µM | GI50 [11]: 743 nM and 1540 nM | TGI [11]: 2.67 µM and 4.87 µM | GI50 [12]: 1270 nM and 2840 nM | TGI [12]: > 5.17 µM and 13.6 µM | GI50 [13]: 1440 nM and 2590 nM | TGI [13]: > 10 µM and 16.2 µM | GI50 [14]: > 3710 nM and 2480 nM | TGI [14]: > 6.27 µM and 8.32 µM | GI50 [15]: 1110 nM and 3130 nM | TGI [15]: > 10 µM and 16.6 µM | GI50 [16]: 338 nM and 519 nM | TGI [16]: 2.77 µM and 4.21 µM | GI50 [17]: 200 nM and 339 nM | TGI [17]: 2.98 µM and 3.27 µM | GI50 [18]: 733 nM and 2030 nM | TGI [18]: > 6.18 µM and 13.9 µM | GI50 [19]: 38.7 nM and 47.8 nM | TGI [19]: 2.65 µM and 4.18 µM | GI50 [20]: 1330 nM and 2240 nM | TGI [20]: 5.16 µM and 6.74 µM | GI50 [21]: 467 nM and 835 nM | TGI [21]: 3.51 µM and 8.31 µM | GI50 [22]: 1080 nM and 2850 nM | TGI [22]: 2.91 µM and 11.3 µM | GI50 [23]: 1100 nM and 2000 nM | TGI [23]: 3.14 µM and 6.49 µM | GI50 [24]: 1080 nM and 969 nM | TGI [24]: 2610 nM and 2990 nM | TGI [25]: 2.6 µM and 11.4 µM | GI50 [26]: 2250 nM and 2400 nM | TGI [26]: > 8.32 µM and 8.33 µM | GI50 [27]: 1310 nM and 2360 nM | TGI [27]: > 5.99 µM and 12.7 µM | GI50 [28]: 196 nM and 123 nM | TGI [28]: 3.13 µM and 3.51 µM | GI50 [29]: > 4.48 µM and 11.6 µM | TGI [29]: > 10 µM and 32.2 µM | GI50 [30]: 2.45 µM and 8.12 µM | TGI [30]: > 8.23 µM and 22 µM | GI50 [31]: 406 nM and 568 nM | TGI [31]: > 10 µM and 13.3 µM | GI50 [32]: 1.41 µM and 6.34 µM | TGI [32]: > 5.8 µM and 20.3 µM | GI50 [33]: 3.28 µM and 9.52 µM | TGI [33]: > 7.74 µM and 23.5 µM | GI50 [34]: 1180 nM and 2800 nM | TGI [34]: > 10 µM and 15.4 µM | GI50 [35]: 4.9 µM and 6.33 µM | TGI [35]: > 10 µM and 19.3 µM | GI50 [36]: 2200 nM and 2690 nM | TGI [36]: > 10 µM and 17.2 µM | GI50 [37]: 3.82 µM and 8.34 µM | TGI [37]: > 7.9 µM and 23.8 µM | GI50 [38]: 320 nM and 554 nM | TGI [38]: > 5.56 µM and 10.2 µM | GI50 [39]: 1650 nM and 2060 nM | TGI [39]: 5.8 µM and 6.11 µM | GI50 [40]: 128 nM and 145 nM | TGI [40]: 1720 nM and 896 nM | GI50 [41]: 1720 nM and 3640 nM | TGI [41]: > 9.54 µM and 17.1 µM | GI50 [42]: 255 nM and 486 nM | TGI [42]: 2.95 µM and 7.01 µM | GI50 [43]: 313 nM and 325 nM | TGI [43]: 3.22 µM and 4.64 µM | GI50 [44]: 1.98 µM and 4.65 µM | TGI [44]: > 6.11 µM and 12.3 µM | GI50 [45]: 1430 nM and 1700 nM | TGI [45]: 4.85 µM and 9.04 µM | GI50 [46]: 1960 nM and 3640 nM | TGI [46]: 3.99 µM and 8.3 µM | GI50 [47]: 242 nM and 340 nM | TGI [47]: 4.58 µM and 7.05 µM | GI50 [48]: 1860 nM and 2040 nM | TGI [48]: > 10 µM and 19.3 µM | GI50 [49]: 340 nM and 783 nM | TGI [49]: 1.87 µM and 13.4 µM | GI50 [50]: 139 nM and 131 nM | TGI [50]: 1480 nM and 2560 nM | GI50 [51]: 749 nM and 1540 nM | TGI [51]: 3.11 µM and 4.74 µM | GI50 [52]: 2.16 µM and 7.33 µM | TGI [52]: > 10 µM and 21 µM | GI50 [53]: 27.2 nM and 49.2 nM | TGI [53]: 1480 nM | GI50 [54]: 531 nM and 1730 nM | TGI [54]: 5.76 µM and 14.3 µM | GI50 [55]: 346 nM and 742 nM | TGI [55]: > 4.58 µM and 12.8 µM | GI50 [56]: 1440 nM and 2880 nM | TGI [56]: 3.71 µM and 9.91 µM | GI50 [57]: 1070 nM and 1460 nM | TGI [57]: > 5.59 µM and 11.6 µM | GI50 [58]: 844 nM and 1510 nM | TGI [58]: > 7.4 µM and 12.5 µM
